We go through nine compounds from patent US20250236616A1, “IMMUNOMODULATING AZALIDES” (Zoetis Services LLC, priority 2021, published 2025).

Molecules are shown by their SMILES.

Common to all, as to type: cell-based
One test concerns TNF-α. The test can be described thus: Whole bovine blood assay, LPS-induced TNF-α. To be noted: fresh whole bovine blood, LPS stimulant; top drug concentration 250 μM. A digest of the protocol:
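Fresh heparinized bovine whole blood was preincubated with compound 4 h at 37 °C, then stimulated with LPS (final 1 μg/mL) for 18 h at 37 °C. Plasma TNF-α was quantified by MSD U-Plex chemiluminescent immunoassay, normalized to total protein (BCA), and IC50 taken for LPS-induced TNF-α inhibition.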

A further test concerns IL-1β. The test can be described thus: Whole bovine blood assay, LPS-induced IL-1β (inhibition / overstimulation). The settings on record: drug concentration giving overstimulation (OS) of LPS-induced IL-1β, top concentration 250 μM. A digest of the protocol:
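IL-1β was quantified by MSD U-Plex chemiluminescence in plasma and normalized to BCA total protein. Bovine blood was pretreated 4 h at 37 °C with compound dilutions before 18 h LPS challenge (1 μg/mL final). Rising IL-1β at high concentrations was recorded as overstimulation.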

The next test has as its system IL-6. The test can be described thus: Whole bovine blood assay, LPS-induced IL-6. The settings on record: fresh whole bovine blood, LPS stimulant; top drug concentration 250 μM.

In the case of `CC[C@H]1OC(=O)[C@H](C)[C@@H](O[C@H]2C[C@@](C)(OC)[C@](O)(CN3CCCCC3)[C@H](C)O2)[C@H](C)[C@@H](O[C@@H]2O[C@H](C)C[C@H](N(CC(C)C)S(=O)(=O)Nc3ccc(C(F)(F)F)cc3)[C@H]2O)[C@](C)(O)C[C@@H](C)CN[C@H](C)[C@@H](O)[C@]1(C)O` [Example C-44], the 50% inhibitory concentration (IC50) in the test on TNF-α and in the test with IL-6 was 4 µM in each case. Also, the minimal effective concentration with IL-1β was 6 µM.

For `CCCNC[C@]1(O)[C@H](C)O[C@@H](O[C@H]2[C@H](C)[C@@H](O[C@@H]3O[C@H](C)C[C@H](N(C)S(=O)(=O)N4CCCCC4)[C@H]3O)[C@](C)(O)C[C@@H](C)CN[C@H](C)[C@@H](O)[C@](C)(O)[C@@H](CC)OC(=O)[C@@H]2C)C[C@@]1(C)OC` [Example B-47], the IC50 is 13 µM in the test with TNF-α and 24 µM in the test on IL-6. Moreover, the minimal effective concentration in the test on IL-1β turned out to be 40 µM.

`CCCNC[C@]1(O)[C@H](C)O[C@@H](O[C@H]2[C@H](C)[C@@H](O[C@@H]3O[C@H](C)C[C@H](N(C)S(=O)(=O)c4ccccc4)[C@H]3Oc3cccc([S+](C)[O-])c3)[C@](C)(O)C[C@@H](C)CN[C@H](C)[C@@H](O)[C@](C)(O)[C@@H](CC)OC(=O)[C@@H]2C)C[C@@]1(C)OC` (stereo partly drawn) [Example B-138]: the values for the IC50 in the test with TNF-α and with IL-6 were 26 µM and 70 µM, respectively. In the test on IL-1β, this compound yielded a minimal effective concentration of 40 µM.

Turning to `CCCNC[C@]1(O)[C@H](C)O[C@@H](O[C@H]2[C@H](C)[C@@H](O[C@@H]3O[C@H](C)C[C@H](N(C)S(=O)(=O)N(C)c4ccccc4)[C@H]3O)[C@](C)(O)C[C@@H](C)CN[C@H](C)[C@@H](O)[C@](C)(O)[C@@H](CC)OC(=O)[C@@H]2C)C[C@@]1(C)OC` [Example B-57], the IC50 amounted to 5 µM with TNF-α and 8 µM with IL-6. The compound also returned a minimal effective concentration in the test on IL-1β of 16 µM.

For the compound `CC[C@H]1OC(=O)[C@H](C)[C@@H](O[C@H]2C[C@@](C)(OC)[C@](O)(CN3CCN(C(C)C)CC3)[C@H](C)O2)[C@H](C)[C@@H](O[C@@H]2O[C@H](C)C[C@H](N(C)S(=O)(=O)Nc3ccc(C(F)(F)F)cc3)[C@H]2O)[C@](C)(O)C[C@@H](C)CN[C@H](C)[C@@H](O)[C@]1(C)O` [Example C-14], the concentration for half-maximal inhibition (IC50) with TNF-α and with IL-6 was above 250 µM in each case. Besides, the minimal effective concentration in the test on IL-1β is given as above 250 µM.

On to `CC[C@H]1OC(=O)[C@H](C)[C@@H](O[C@H]2C[C@@](C)(OC)[C@](O)(CN3CCSCC3)[C@H](C)O2)[C@H](C)[C@@H](O[C@@H]2O[C@H](C)C[C@H](N(C)S(=O)(=O)c3ccc(Cl)cc3)[C@H]2O)[C@](C)(O)C[C@@H](C)CN[C@H](C)[C@@H](O)[C@]1(C)O` [Example C-6], for which the values for the concentration for half-maximal inhibition (IC50) in the test with TNF-α and with IL-6 were 6 µM and 32 µM, respectively. The minimal effective concentration with IL-1β came to 16 µM.

Turning to `CCCNC[C@]1(O)[C@H](C)O[C@@H](O[C@H]2[C@H](C)[C@@H](O[C@@H]3O[C@H](C)C[C@H](N(Cc4ccccc4)S(=O)(=O)c4ccc(OC)cc4)[C@H]3O)[C@](C)(O)C[C@@H](C)CN[C@H](C)[C@@H](O)[C@](C)(O)[C@@H](CC)OC(=O)[C@@H]2C)C[C@@]1(C)OC` [Example B-144], the half-maximal inhibitory concentration (IC50) with TNF-α was determined as 9 µM; with IL-6, 10 µM. In the test on IL-1β, the minimal effective concentration was 2 µM.

For `CC[C@H]1OC(=O)[C@H](C)[C@@H](O[C@H]2C[C@@](C)(OC)[C@](O)(CN3CCCCC3)[C@H](C)O2)[C@H](C)[C@@H](O[C@@H]2O[C@H](C)C[C@H](N(C)S(=O)(=O)c3nccn3C)[C@H]2Oc2ccnc(F)c2)[C@](C)(O)C[C@@H](C)CN[C@H](C)[C@@H](O)[C@]1(C)O` [Example C-49], the concentration for half-maximal inhibition (IC50) with TNF-α stood at 6 µM; in the test on IL-6 it was 9 µM. Further, in the test with IL-1β, the minimal effective concentration is on record as 6 µM.

`CCCNC[C@]1(O)[C@H](C)O[C@@H](O[C@H]2[C@H](C)[C@@H](O[C@@H]3O[C@H](C)C[C@H](N(Cc4ccc(OC)cc4)S(=O)(=O)c4nccn4C)[C@H]3O)[C@](C)(O)C[C@@H](C)CN[C@H](C)[C@@H](O)[C@](C)(O)[C@@H](CC)OC(=O)[C@@H]2C)C[C@@]1(C)OC` [Example B-146]: the IC50 in the test on TNF-α and in the test with IL-6 was 10 µM in each case. Also, the minimal effective concentration in the test with IL-1β is on record as 2 µM.

By IC50 is commonly meant the concentration that gives 50% inhibition. The term minimal effective concentration denotes the smallest amount tested that counted as effective. Low readings indicate greater potency, high ones weaker potency.
